SMILES strings stand for the structures.

The test system of data set [1] is RXF 486L (hypernephroma, poorly differentiated). As to the kind of experiment: Propidium iodide monolayer cell proliferation assay, RXF 486L. The following applies: four days of treatment. It is filed as cell-based, human. On the procedure:
Working stock solution of PM14 was prepared in DMSO at a concentration of 1.042 mM and small aliquots were stored at −20° C. On each day of an experiment, a frozen aliquot of the working stock solution was thawed and stored at room temperature prior to and during treatment.
Subsequent dilutions were done with complete RPMI 1640 cell culture medium. DMSO stock solutions were first diluted 1:22 (corresponding to 4.5% v/v DMSO). Starting with this solution, serial dilutions in half-log steps with cell culture medium were done using an intermediate dilution plate. Finally, 10 μl taken from the intermediate dilution plate were transferred to 140 μl/well of the cell culture plate. […]
Cell proliferation assay: A modified propidium iodide (PI) based monolayer assay was used to assess the anti-cancer activity of the compounds (Dengler WA, Schulte J, Berger DP, Mertelsmann R, Fiebig HH, Anti-Cancer Drugs 1995, 6: 522-532). Briefly, cells were harvested from exponential phase cultures, counted and plated in 96 well flat-bottom microtiter plates at a cell density of 4,000 to 30,000 cells/well dependent on the cell line's growth rate. […] After an incubation period of 1-2 hours at room temperature, fluorescence (FU) was measured using the Enspire Multimode Plate Reader (excitation A=530 nm, emission A=620 nm) to quantify the amount of attached viable cells. […]

Data set [2] is described as follows: Phase I dose-escalating study, pharmacokinetics. It is filed as in vivo. From the text: Open-label, dose-escalating, phase I trial of PM14 administered as a 3-hour infusion i.v. every 3 weeks (q3wk) in human patients (pts) with advanced solid tumors, adequate organ function and ECOG PS score of 0-1. Two schedules were explored: Schedule A (Day 1 [D1], Day 8 [D8]) and Schedule B (D1).
Secondary Endpoints • Safety: patients will be evaluable for safety if they have received at least one partial infusion of PM14. AEs will be graded according to the NCI-CTCAE v.4. Additionally, treatment-related discontinuations and treatment compliance (dose reduction, skipped doses and/or treatment delays due to AEs), will be described. • Pharmacokinetics: PK analyses will be evaluated in plasma and urine by standard non-compartmental analysis (compartmental modeling may be performed if appropriate). Plasma samples for PM14 PK analysis will be obtained in Cycle 1 from all patients, and also in Cycle 2 from patients treated during Step D of the CRM. In addition, the urine produced during Day 1 of Cycle 1 and Cycle 2 will be collected from patients treated during Step D of the CRM. • Pharmacogenetics: the presence or absence of PGt polymorphisms in genes relevant for PM14 disposition (distribution, metabolism and excretion) from a single blood sample collected at any time during the trial (but preferably at the same time as the pre-treatment PK sample on Day 1 of Cycle 1) will be assessed to explain individual variability in main PK parameters. • Pharmacogenomics: this exploratory analysis will be performed in those patients who sign the Informed Consent Form (ICF) for the PGx study. mRNA or protein expression levels of factors involved in DNA repair mechanisms, or related to the mechanism of action of PM14, will be evaluated from available tumor tissue samples obtained at diagnosis or relapse and in cell-free ctDNA. Their mutational status might also be analyzed, if relevant. Their correlation with the clinical response and outcome after treatment will be assessed. • Efficacy: patients will be evaluable for efficacy if they receive at least one complete infusion of PM14 and have at least one clinical or radiological tumor assessment as per RECIST v.1.1 or serum markers, or if they are considered to have failed treatment. Treatment failure will be defined as clinical deterioration, death due to PD or treatment discontinuation due to any treatment-related toxicity before any appropriate tumor assessments have been performed.

Regarding `COc1c(C)cc2c(c1O)[C@@H]1[C@@H]3[C@@H]4SC[C@]5(N[C@H](CO)Cc6c5[nH]c5ccccc65)C(=O)OC[C@@H](c5c6c(c(C)c(OC(C)=O)c54)OCO6)N3[C@@H](O)[C@H](C2)N1C` [PM14, ECUBECTEDIN], the IC50 in data set [1] (Homo sapiens, 96 h, read-out: IC50, μM (geometric mean)) was 0.002 µM. Also, in data set [1], the “IC70, μM (geometric mean)” value is 0.002 µM. In data set [2] (human, in vivo), the Vd was found to be 128 L and the clearance was 98.3 mL/min. The same compound showed a half-life in data set [2] (human, in vivo, half-life) of 16 h. For the same compound, the half-life in data set [2] (human, in vivo, terminal half-life, median (range)) is 15.9 h. For the same compound, in data set [2] (patients), the “administered dose recovered in urine” value was “Less than 1.6%”, the “distribution into peripheral tissues” value is on record as “moderate” and the hepatic extraction ratio result was “low”. Also, the “pharmacokinetics, dose linearity” value in data set [2] (tested doses 0.25-5.6 mg/rn^2) was “Linear pharmacokinetics”.

Source of the values: US20240277705A1, “DOSAGE REGIMENS FOR ECUBECTEDIN” (PHARMA MAR S.A., priority 2021, published 2024).
